Data set [1] concerns BT-483. In words: Induction of apoptosis in human BT-483 cells assessed as apoptotic nuclear fragment formation at 5 uM after 24 hrs by fluorescence microscopic method. Format: functional, cell-based.
In data set [2] the test system is BT-483. The data set is described as follows: Induction of apoptosis in human BT-483 cells assessed as live cells at 5 uM by Annexin V-FITC/propidium iodide staining based flow cytometry (reference value: 87.5%). The format is functional.
Data set [3] concerns BT-483. In words: Induction of apoptosis in human BT-483 cells assessed as early apoptotic cells at 10 uM by Annexin V-FITC/propidium iodide staining based flow cytometry (reference value: 2.01%). The format is functional.
Data set [4] concerns BT-483. In words: Induction of apoptosis in human BT-483 cells assessed as necrotic cells at 10 uM by Annexin V-FITC/propidium iodide staining based flow cytometry (reference value: 0.18%). The format is functional.
Data set [5] addresses T1, Eukaryotic elongation factor 2 kinase (Homo sapiens) (UniProt O00418).
T1 sequence (whole entry): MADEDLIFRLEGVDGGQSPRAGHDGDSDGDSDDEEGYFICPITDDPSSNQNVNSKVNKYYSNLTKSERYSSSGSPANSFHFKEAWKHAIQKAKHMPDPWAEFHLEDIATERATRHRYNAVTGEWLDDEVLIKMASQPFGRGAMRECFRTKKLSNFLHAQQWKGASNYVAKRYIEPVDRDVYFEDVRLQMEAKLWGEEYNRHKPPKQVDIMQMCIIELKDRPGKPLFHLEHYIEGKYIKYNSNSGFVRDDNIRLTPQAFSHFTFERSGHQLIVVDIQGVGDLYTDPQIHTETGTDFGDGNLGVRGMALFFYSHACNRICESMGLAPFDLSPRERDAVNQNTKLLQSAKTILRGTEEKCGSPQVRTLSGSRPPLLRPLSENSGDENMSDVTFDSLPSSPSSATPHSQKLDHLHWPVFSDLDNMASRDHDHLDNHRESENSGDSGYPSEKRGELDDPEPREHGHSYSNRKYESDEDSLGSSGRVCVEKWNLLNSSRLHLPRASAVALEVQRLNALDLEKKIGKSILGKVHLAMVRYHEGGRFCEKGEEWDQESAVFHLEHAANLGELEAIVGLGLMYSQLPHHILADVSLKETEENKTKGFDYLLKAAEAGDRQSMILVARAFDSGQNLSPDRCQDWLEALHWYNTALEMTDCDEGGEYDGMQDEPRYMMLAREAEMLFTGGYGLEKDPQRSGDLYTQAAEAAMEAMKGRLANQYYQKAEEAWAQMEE
In words: Inhibition of EEF2K-meidated EEF2 phosphorylation in human BT-483 cells at 5 to 10 uM by Western blot analysis. Format: cell-based. A general note: In western blotting, separated proteins are transferred to a membrane and probed.

In data set [6] the test system is BT-483. In words: Effect on total PLK1 protein expression in human BT-483 cells at 5 to 10 uM by Western blot analysis. Format: ADME, cell-based. The conditions noted are these: bt-483, 10 µM.
The test system of data set [7] is BT-483. The data set is described as follows: Effect on total EEF2K protein expression in human BT-483 cells at 5 to 10 uM by Western blot analysis. The conditions noted are these: bt-483, 10 µM. The format is ADME, cell-based.
For data set [8], the system named is BT-483. The data set is described as follows: Induction of autophagy in human BT-483 cells assessed as degradation of SQSTM1 protein at 5 to 10 uM by Western blot analysis. The format is functional, cell-based.
Data set [9] concerns BT-483. In words: Upregulation of cleaved caspase-3 protein expression in human BT-483 cells at 5 to 10 uM by Western blot analysis. Format: functional, cell-based.
The target of data set [10] is ALK tyrosine kinase receptor (Homo sapiens) (UniProt Q9UM73). In words: Inhibition of wild-type human partial length ALK (I1088 to E1409 residues) expressed in mammalian expression system assessed as residual activity at 1 uM by Kinomescan method relative to control.
In data set [11] the target is Aurora kinase A (Homo sapiens) (UniProt O14965). In words: Inhibition of wild-type human partial length AURKA (E122 to K401 residues) expressed in mammalian expression system assessed as residual activity at 1 uM by Kinomescan method relative to control.
Chain of Aurora kinase A (Homo sapiens) (O14965 whole entry, the tested form may be a part): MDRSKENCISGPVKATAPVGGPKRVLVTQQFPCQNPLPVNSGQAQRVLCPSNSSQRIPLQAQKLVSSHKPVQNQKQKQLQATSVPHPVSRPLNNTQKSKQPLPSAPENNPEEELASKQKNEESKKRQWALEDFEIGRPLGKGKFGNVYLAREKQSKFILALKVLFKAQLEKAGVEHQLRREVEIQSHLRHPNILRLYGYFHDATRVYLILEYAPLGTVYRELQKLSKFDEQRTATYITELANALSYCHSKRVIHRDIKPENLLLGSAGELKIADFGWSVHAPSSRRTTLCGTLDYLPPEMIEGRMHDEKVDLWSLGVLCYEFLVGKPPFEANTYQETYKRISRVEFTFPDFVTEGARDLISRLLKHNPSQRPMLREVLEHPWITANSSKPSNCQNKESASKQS
Data set [12] concerns the target Aurora kinase B (Homo sapiens) (UniProt Q96GD4). In words: Inhibition of wild-type human partial length AURKB (D25 to A303 residues) expressed in mammalian expression system assessed as residual activity at 1 uM by Kinomescan method relative to control.
Data set [13] addresses Cyclin-dependent kinase 9 (Homo sapiens) (UniProt P50750). The data set is described as follows: Inhibition of wild-type human full length CDK9 (M1 to F372 residues) expressed in bacterial expression system assessed as residual activity at 1 uM by Kinomescan method relative to control.
Data set [14] concerns the target Macrophage colony-stimulating factor 1 receptor (Homo sapiens) (UniProt P07333). The data set is described as follows: Inhibition of wild-type human partial length CSF1R (I564 to S939 residues) expressed in bacterial expression system assessed as residual activity at 1 uM by Kinomescan method relative to control.
For data set [15], the target named is Mitogen-activated protein kinase 3 (Homo sapiens) (UniProt P27361). The data set is described as follows: Inhibition of wild-type human full length ERK1 (M1 to P379 residues) expressed in bacterial expression system assessed as residual activity at 1 uM by Kinomescan method relative to control.
Chain of Mitogen-activated protein kinase 3 (Homo sapiens) (P27361 whole entry, the tested form may be a part): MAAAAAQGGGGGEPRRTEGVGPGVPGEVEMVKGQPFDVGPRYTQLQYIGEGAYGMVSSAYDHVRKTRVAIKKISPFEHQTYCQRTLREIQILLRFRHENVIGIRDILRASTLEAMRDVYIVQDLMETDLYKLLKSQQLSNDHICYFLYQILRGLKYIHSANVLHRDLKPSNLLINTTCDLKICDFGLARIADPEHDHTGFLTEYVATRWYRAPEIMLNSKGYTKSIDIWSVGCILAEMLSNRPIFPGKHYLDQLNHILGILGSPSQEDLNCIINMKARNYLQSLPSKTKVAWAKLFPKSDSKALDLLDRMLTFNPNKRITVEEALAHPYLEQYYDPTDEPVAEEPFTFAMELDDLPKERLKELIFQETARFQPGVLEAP
The target of data set [16] is Fibroblast growth factor receptor 1 (Homo sapiens) (UniProt P11362). The data set is described as follows: Inhibition of wild-type human partial length FGFR1 (P357 to V669 residues) expressed in bacterial expression system assessed as residual activity at 1 uM by Kinomescan method relative to control.
Chain of Fibroblast growth factor receptor 1 (Homo sapiens) (P11362 22-822 limits assumed): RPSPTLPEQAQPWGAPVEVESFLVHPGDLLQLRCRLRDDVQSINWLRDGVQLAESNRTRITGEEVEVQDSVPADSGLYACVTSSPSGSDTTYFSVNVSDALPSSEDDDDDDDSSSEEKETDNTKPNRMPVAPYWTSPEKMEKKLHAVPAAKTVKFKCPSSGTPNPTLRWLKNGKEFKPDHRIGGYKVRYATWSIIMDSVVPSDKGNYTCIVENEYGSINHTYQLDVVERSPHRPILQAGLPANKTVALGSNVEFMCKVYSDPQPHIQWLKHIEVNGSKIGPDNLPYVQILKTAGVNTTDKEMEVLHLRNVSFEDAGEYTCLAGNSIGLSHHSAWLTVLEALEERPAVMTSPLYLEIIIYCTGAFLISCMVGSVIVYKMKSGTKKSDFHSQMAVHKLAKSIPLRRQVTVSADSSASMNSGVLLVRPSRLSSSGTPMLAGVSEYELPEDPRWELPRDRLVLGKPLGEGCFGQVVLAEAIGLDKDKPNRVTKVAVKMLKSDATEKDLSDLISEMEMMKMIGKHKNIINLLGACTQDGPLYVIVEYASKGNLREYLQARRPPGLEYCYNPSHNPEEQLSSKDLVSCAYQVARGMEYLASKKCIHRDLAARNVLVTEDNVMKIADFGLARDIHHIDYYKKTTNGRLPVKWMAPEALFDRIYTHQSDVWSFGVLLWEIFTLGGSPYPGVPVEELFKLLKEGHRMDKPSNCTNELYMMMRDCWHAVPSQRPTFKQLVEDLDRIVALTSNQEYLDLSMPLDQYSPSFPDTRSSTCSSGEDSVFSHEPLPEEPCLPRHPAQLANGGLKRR
The target of data set [17] is Mast/stem cell growth factor receptor Kit (Homo sapiens) (UniProt P10721). The data set is described as follows: Inhibition of wild-type human partial length KIT (I571 to D952 residues) expressed in bacterial expression system assessed as residual activity at 1 uM by Kinomescan method relative to control.
Data set [18] concerns the target MAP kinase-interacting serine/threonine-protein kinase 2 (Homo sapiens) (UniProt Q9HBH9). The data set is described as follows: Inhibition of wild-type human partial length MKNK2 (G63 to S388 residues) expressed in mammalian expression system assessed as residual activity at 1 uM by Kinomescan method relative to control.
For data set [19], the target named is 3-phosphoinositide-dependent protein kinase 1 (Homo sapiens) (UniProt O15530). In words: Inhibition of wild-type human full length PDPK1 (M1 to Q556 residues) expressed in bacterial expression system assessed as residual activity at 1 uM by Kinomescan method relative to control.
Chain of 3-phosphoinositide-dependent protein kinase 1 (Homo sapiens) (O15530 whole entry, the tested form may be a part): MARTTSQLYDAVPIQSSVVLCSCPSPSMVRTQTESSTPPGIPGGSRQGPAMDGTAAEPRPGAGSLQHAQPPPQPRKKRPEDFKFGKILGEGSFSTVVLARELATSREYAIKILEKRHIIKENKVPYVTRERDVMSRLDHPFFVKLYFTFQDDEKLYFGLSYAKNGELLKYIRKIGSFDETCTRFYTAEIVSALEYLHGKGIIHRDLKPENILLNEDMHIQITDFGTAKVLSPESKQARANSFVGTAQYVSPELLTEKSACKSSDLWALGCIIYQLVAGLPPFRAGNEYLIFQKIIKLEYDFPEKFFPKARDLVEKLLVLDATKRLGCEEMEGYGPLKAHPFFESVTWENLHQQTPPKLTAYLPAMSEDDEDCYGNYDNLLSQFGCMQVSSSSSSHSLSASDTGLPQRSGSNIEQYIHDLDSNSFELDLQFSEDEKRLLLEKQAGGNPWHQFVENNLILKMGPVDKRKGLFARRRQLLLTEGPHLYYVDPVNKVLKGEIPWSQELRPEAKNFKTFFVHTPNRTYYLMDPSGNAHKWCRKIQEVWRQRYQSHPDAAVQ
Data set [20] concerns the target Rho-associated protein kinase 1 (Homo sapiens) (UniProt Q13464). In words: Inhibition of wild-type human partial length ROCK1 (M1 to R415 residues) expressed in mammalian expression system assessed as residual activity at 1 uM by Kinomescan method relative to control.
Data set [21] concerns the target SRSF protein kinase 3 (Homo sapiens) (UniProt Q9UPE1). In words: Inhibition of wild-type human partial length SRPK3 (P41 to P567 residues) expressed in bacterial expression system assessed as residual activity at 1 uM by Kinomescan method relative to control.
Data set [22] addresses Serine/threonine-protein kinase 32C (Homo sapiens) (UniProt Q86UX6). In words: Inhibition of wild-type human partial length YANK3 (M68 to G486 residues) expressed in bacterial expression system assessed as residual activity at 1 uM by Kinomescan method relative to control.
Data set [23] concerns the target Casein kinase I isoform delta (Homo sapiens) (UniProt P48730). In words: Inhibition of wild-type human full length CSNK1D (M1 to K409 residues) expressed in bacterial expression system assessed as residual activity at 1 uM by Kinomescan method relative to control.

The source made the active and inactive calls. No cut-off for these calls is given here.

These results are taken from ChEMBL document CHEMBL4251622, “Design, synthesis, and biological evaluation of polo-like kinase 1/eukaryotic elongation factor 2 kinase (PLK1/EEF2K) dual inhibitors for regulating breast cancer cells apoptosis and autophagy” (Eur J Med Chem, 2018).

Chain of SRSF protein kinase 3 (Homo sapiens) (Q9UPE1 whole entry, the tested form may be a part): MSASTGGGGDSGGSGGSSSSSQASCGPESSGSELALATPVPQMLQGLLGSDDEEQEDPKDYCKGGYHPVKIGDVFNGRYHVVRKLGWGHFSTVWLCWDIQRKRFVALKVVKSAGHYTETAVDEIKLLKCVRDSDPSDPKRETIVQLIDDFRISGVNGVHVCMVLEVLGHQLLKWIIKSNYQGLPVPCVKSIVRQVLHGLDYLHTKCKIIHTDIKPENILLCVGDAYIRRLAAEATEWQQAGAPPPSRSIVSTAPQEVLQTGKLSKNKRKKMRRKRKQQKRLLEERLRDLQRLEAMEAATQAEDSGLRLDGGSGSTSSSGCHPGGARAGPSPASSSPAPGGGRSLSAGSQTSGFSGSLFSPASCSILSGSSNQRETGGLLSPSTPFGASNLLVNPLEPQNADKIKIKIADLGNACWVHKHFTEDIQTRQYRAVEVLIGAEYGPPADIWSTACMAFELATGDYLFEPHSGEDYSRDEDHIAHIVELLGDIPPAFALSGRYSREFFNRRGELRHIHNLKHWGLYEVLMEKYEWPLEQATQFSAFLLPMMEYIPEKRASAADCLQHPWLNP
Chain of Rho-associated protein kinase 1 (Homo sapiens) (Q13464 2-1354 limits assumed): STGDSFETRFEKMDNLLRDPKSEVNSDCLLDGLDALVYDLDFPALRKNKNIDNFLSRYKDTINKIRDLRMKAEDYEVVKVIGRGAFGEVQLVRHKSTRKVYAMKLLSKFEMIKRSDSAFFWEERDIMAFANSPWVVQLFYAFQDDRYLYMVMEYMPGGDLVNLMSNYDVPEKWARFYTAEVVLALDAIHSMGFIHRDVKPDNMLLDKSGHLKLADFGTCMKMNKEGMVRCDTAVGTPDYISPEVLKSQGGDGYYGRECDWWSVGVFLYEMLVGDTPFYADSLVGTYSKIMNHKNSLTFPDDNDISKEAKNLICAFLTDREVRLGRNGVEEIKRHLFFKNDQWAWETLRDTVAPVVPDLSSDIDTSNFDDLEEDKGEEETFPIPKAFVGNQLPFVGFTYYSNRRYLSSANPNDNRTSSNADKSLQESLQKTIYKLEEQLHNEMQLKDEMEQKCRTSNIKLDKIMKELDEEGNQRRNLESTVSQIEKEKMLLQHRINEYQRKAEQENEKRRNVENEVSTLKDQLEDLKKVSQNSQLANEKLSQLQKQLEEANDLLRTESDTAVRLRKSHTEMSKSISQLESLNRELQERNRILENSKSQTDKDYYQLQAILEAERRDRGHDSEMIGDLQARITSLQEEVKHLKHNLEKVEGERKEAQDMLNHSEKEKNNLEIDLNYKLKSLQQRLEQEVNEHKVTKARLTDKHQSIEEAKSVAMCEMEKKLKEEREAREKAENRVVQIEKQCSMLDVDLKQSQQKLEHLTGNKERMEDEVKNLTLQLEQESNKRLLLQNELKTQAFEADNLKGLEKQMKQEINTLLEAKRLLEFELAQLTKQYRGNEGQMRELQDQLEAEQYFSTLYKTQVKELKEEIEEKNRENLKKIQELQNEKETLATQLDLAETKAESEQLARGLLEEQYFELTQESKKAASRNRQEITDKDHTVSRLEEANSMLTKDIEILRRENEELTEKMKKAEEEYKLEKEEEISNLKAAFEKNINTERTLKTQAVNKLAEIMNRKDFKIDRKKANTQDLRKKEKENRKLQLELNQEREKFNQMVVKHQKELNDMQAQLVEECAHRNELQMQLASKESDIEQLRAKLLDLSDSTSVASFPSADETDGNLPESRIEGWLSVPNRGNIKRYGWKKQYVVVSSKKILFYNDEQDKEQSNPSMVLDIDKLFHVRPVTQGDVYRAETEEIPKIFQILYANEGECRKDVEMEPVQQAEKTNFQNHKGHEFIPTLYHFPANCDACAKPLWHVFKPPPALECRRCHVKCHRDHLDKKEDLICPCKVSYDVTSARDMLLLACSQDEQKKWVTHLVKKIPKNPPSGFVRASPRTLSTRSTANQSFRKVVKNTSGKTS
Chain of MAP kinase-interacting serine/threonine-protein kinase 2 (Homo sapiens) (Q9HBH9 whole entry, looked up, the tested form may be a part): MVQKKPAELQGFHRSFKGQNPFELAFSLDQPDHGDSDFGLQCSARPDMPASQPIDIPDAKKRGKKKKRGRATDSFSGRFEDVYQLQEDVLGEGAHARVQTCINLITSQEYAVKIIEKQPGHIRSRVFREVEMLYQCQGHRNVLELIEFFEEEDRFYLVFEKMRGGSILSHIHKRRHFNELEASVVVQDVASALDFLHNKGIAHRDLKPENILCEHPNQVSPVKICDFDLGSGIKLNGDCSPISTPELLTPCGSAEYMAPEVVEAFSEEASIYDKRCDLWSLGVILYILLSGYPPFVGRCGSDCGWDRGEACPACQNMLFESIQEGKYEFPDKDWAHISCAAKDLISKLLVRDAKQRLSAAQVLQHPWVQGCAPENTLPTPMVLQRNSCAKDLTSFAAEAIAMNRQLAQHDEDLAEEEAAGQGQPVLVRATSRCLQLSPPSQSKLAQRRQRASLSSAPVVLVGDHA
Chain of Aurora kinase B (Homo sapiens) (Q96GD4 whole entry, the tested form may be a part): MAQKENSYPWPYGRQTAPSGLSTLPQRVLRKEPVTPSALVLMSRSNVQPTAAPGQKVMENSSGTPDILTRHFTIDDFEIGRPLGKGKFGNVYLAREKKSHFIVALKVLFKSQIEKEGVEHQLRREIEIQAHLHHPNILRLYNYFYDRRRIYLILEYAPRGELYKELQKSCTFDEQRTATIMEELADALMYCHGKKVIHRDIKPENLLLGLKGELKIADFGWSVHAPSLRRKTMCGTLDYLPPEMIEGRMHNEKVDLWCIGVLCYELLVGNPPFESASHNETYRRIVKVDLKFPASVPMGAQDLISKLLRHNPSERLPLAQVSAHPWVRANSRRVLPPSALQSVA

Turning to `CCNc1cc(-c2ccc(NC(=O)Nc3cccc(Cl)c3)cc2C(F)(F)F)ccn1`, the result in the data set with BT-483 [1], in the data set with BT-483 [8] and in the data set with BT-483 [9] was Active. The Activity is 86.2% in the data set on BT-483 [2]; 8.72% in the data set on BT-483 [3]; 0.48% with BT-483 [4]; “Non-Toxic” in the data set on BT-483 [6]; “Non-Toxic” in the data set with BT-483 [7]; 88% in [10]. Also, the Activity in [11] came to 100%; in data set [12], 95%; in [13], 91%; in data set [14], 85%; in data set [15] it was 67%; in data set [16] it was 91%. The Activity in data set [17] came to 76%; in [18] it was 73%; in [19] it was 63%; in [20], 70%; in [21], 98%; in data set [22], 73%. Besides, the Activity in data set [23] came to 86%. In addition, the inhibition entry in data set [5] is “Active”.
